Values of other authors in patent US6638431B2, “Formulation and method for treating wetted surface elements in climate control systems” (Mainstream Engineering Corporation, priority 2001, dated 2003).

System: Legionella pneumophilia

[Ag] [Ag, silver]
concentration in water effective against Legionella pneumophilia: about 0.02 ppm
